Results reported in patent US9216165B2, “Combination of a statin and a taxane for the treatment of gastric cancer” (INSERM (Institut National de la Sante et de la Recherche …, priority 2011, dated 2015).

What was measured:
[1] = tested on: HGT-1 human gastric cancer cells; experiment: Apoptosis by Hoechst 33342 staining in HGT-1 cells; assay type: cell-based; settings: for apoptosis: HGT-1
Experimental: HGT-1 human gastric cancer cells were grown at 37° C. under a humidified atmosphere of 5% CO2 in DMEM (Dulbecco's modified Eagle's medium) (Lonza, Saint Beauzire, France), containing 4.5 g/L glucose and supplemented with 5% fetal bovine serum without antibiotics (Gibco-Invitrogen, Cergy Pontoise, France).
(§1) Apoptosis was determined by Hoechst 33342 (10 μg/ml in PBS) staining of the cells for 15 min at 37° C. and fluorescence microscopy analysis of 300 cells per condition, from replicate cultures.

[2] = tested on: docetaxel-resistant HGT-1 cells (D5)
Experimental: Selection of the docetaxel-resistant cell populations was performed with mass cultures grown in complete medium supplemented with 5 nM docetaxel. […] Cells were constantly grown in presence of 5 nM docetaxel, excepted for the cell passage that preceded the experiments that involved drug treatments. […]

HGT-1 cells [3] = experiment: mRNA levels by quantitative real-time RT-PCR in HGT-1 cells; assay type: cell-based, human; settings: 48 h
Experimental: Total RNA was isolated using Trizol (Invitrogen, Cergy-Pontoise, france) and the RNA samples were used for the first-strand cDNA synthesis with the High Capacity cDNA Reverse Transcription kit and random hexamer primers (Applied biosystems). Quantitative real-time RT-PCR was performed using the Power SYBR Green Kit (Applied biosystems) according to the manufacturer's instructions. mRNA levels were analyzed in duplicate, normalized against GAPDH or phospho-protein P0 as an internal control gene. The results are expressed as the relative gene expression using the ΔΔCt method (Livak and Schmittgen 2001). The primer sequences and reaction conditions will be provided upon request.

HGT-1 cells [4] = experiment: Protein levels by western blotting in HGT-1 cells; assay type: cell-based, human
Experimental: (§2) The cells were harvested, washed in PBS and lysed in ripa buffer (50 mM Tris HCl pH7.4, 150 mM NaCl, 0.5% Sodium deoxycholate, 0.1% SDS, 1% NP40, 1 mM EDTA, 1 mM PMSF) containing protease inhibitor cocktail (Roche, Meylan, France) and phosphatase inhibitor (Active motif) for 10 min at 4° C. Sixty micrograms of proteins were boiled in Laemmli sample buffer (Bio-Rad) for 5 min, separated by SDS-PAGE using 12% or 15% polyacrylamide gels and blotted onto polyvinyl difluoride membranes (GE Healthcare). Non specific binding sites were blocked for 1 h at room temperature by 5% (wt/v) fat-free milk before overnight incubation at 4° C. with specific rabbit (or mouse for cyclin B1) anti-human antibodies: aurora kinase A and B, procaspase-3, PARP, Bcl-2, Bax and survivin (Cell Signaling Technology-Ozyme, Saint Quentin en Yvelines, France), p27, p21, Mcl-1, cyclin B1 (Santa Cruz biotechnology, Tebu-bio, le Perray en Yvelines, France), cyclin D1 (NeoMarkers, Thermo Fisher Scientific, Illkirch, France) or HSC70 (Abcam, Paris, France) as a loading control. Anti-phospho-ERK1/2 was a mouse monoclonal antibody against a synthetic phosphopeptide (residues around threonine 202 and […] of human p44 MAPK, Cell Signaling Technology, Ozyme, France). Polyclonal antibodies against ERK1 (rabbit, sc-94) or ERK2 (rabbit, sc-154) and phospho-MEK1/2 were from Santa Cruz Biotechnology (Tebu-bio). Rabbit anti-phospho-JNK (Cell Signaling, Saint-Quentin en Yvelines, France) and rabbit polyclonal antibody anti-P38 (Santa Cruz Biotechnology, Tebu-bio). Primary antibodies were detected with a horseradish peroxidase-conjugated IgGs (GE Healthcare, Orsay, France).

D5 cells [5] = experiment: Protein levels by western blotting in D5 cells; assay type: cell-based, human; settings: 2.5 μM lovastatin, 72 h
Experimental: as §2, with “Polyclonal antibodies against ERK1 (rabbit, sc-94) or ERK2 (rabbit, sc-154) and phospho-MEK1/2 were from Santa Cruz Biotechnology (Tebu-bio). Rabbit anti-phospho-JNK (Cell Signaling, Saint-Quentin en Yvelines, France) and rabbit polyclonal antibody anti-P38 (Santa Cruz Biotechnology, Tebu-bio).” left out

D5 cells [6] = experiment: p21 mRNA by RT-PCR in D5 cells; assay type: cell-based, human; settings: data not shown
Experimental: Selection of the docetaxel-resistant cell populations was performed with mass cultures grown in complete medium supplemented with 5 nM docetaxel. […] Cells were constantly grown in presence of 5 nM docetaxel, excepted for the cell passage that preceded the experiments that involved drug treatments.

[7] = tested on: lovastatin-resistant HGT-1-derived cells; experiment: Apoptosis in lovastatin-resistant HGT-1-derived cells; assay type: cell-based, human; settings: data not shown
Experimental: as §1

**Q.** Z-VAD-fmk was tested. Which “effect on docetaxel-induced cell death” value ([1]; HGT-1, with docetaxel) did it give?
**A.** suppress cell death

**Q.** With `CC[C@H](C)C(=O)O[C@H]1C[C@@H](C)C=C2C=C[C@H](C)[C@H](CC[C@@H]3C[C@@H](O)CC(=O)O3)[C@H]21` [lovastatin] as the molecule, how does the apoptosis ([1]; 12.5 μM lovastatin, 48 h) read?
**A.** 35%

**Q.** And the apoptosis ([1]; 2.5 or 5 μM lovastatin, 48 or 72 h)?
**A.** up to 32%

**Q.** And the apoptosis ([2]; 2.5 or 5 μM lovastatin, 48 or 72 h, D5 cells)?
**A.** up to 55%

**Q.** What about the p27 expression (HGT-1 cells [3]; 12.5 μM lovastatin alone or with 5 or 10 nM docetaxel) of the same molecule?
**A.** slightly reduced

**Q.** And the “p21 mRNA induction” value (HGT-1 cells [3]; 12.5 μM lovastatin)?
**A.** up to 4 fold

**Q.** What about the “LDL-R, HMG-CoA reductase, FPPS and FAS mRNA levels” value (HGT-1 cells [3]) of the same molecule?
**A.** induced

**Q.** What about the “aurora kinase B and survivin mRNA” value (HGT-1 cells [3]) of the same molecule?
**A.** repressed

**Q.** And the “cyclin B1, cyclin D1 and aurora kinase A mRNA” value (HGT-1 cells [3])?
**A.** reduced expression of all transcripts

**Q.** What about the “phospho-MEK1/2, phospho-ERK1/2 and p38 MAP kinase levels” value (HGT-1 cells [4]) of the same molecule?
**A.** decreased

**Q.** And the “phosphorylated jun kinase (JNK)” value (HGT-1 cells [4])?
**A.** induced

**Q.** What about the Bax protein (HGT-1 cells [4]; 48 h) of the same molecule?
**A.** slightly suppressed

**Q.** And the “Caspase-3 and PARP cleavage” value (HGT-1 cells [4]; 48 h)?
**A.** cleaved

**Q.** And the Mcl-1 protein (HGT-1 cells [4]; 48 h)?
**A.** suppressed

**Q.** What about the “cyclin B1, D1, aurora kinase A, B and survivin protein levels” value (HGT-1 cells [4]; 48 h) of the same molecule?
**A.** decrease in all proteins

**Q.** What about the “over-expressed survivin and cyclin B1 proteins in D5 cells” value (D5 cells [5]) of the same molecule?
**A.** fully suppressed

**Q.** And the “p27 protein in D5 cells” value (D5 cells [5])?
**A.** induced

**Q.** And the “induction of p21 mRNA in D5 cells compared with HGT-1” value (D5 cells [6])?
**A.** stronger

**Q.** Which apoptosis ([1]; 1 nM vinblastine, 48 h) does the source give for `CC[C@]1(O)C[C@@H]2CN(CCc3c([nH]c4ccccc34)[C@@](C(=O)OC)(c3cc4c(cc3OC)N(C)[C@H]3[C@@](O)(C(=O)OC)[C@H](OC(C)=O)[C@]5(CC)C=CCN6CC[C@]43[C@@H]65)C2)C1` [vinblastine] here?
**A.** about 30%

**Q.** And the “vinblastine-induced apoptosis in D5 cells” value ([2]; 1 nM vinblastine, 48 h)?
**A.** resistant

**Q.** For `CC(=O)O[C@@]12CO[C@@H]1C[C@H](O)[C@@]1(C)C(=O)[C@H](O)C3=C(C)[C@@H](OC(=O)[C@H](O)[C@@H](NC(=O)OC(C)(C)C)c4ccccc4)C[C@@](O)([C@@H](OC(=O)c4ccccc4)[C@H]21)C3(C)C` [docetaxel, Docetaxel], which apoptosis ([1]; 5 nM docetaxel, 48 h) is on record?
**A.** 15%

**Q.** And the apoptosis ([1]; 10 nM docetaxel, 48 h)?
**A.** 27%

**Q.** What about the p21 expression (HGT-1 cells [3]; 5 or 10 nM docetaxel) of the same molecule?
**A.** induced

**Q.** What about the “aurora kinase B and survivin mRNA” value (HGT-1 cells [3]) of the same molecule?
**A.** weakly induced

**Q.** What about the “phospho-MEK1/2, phospho-ERK1/2 and p38 MAP kinase levels” value (HGT-1 cells [4]) of the same molecule?
**A.** had no effect

**Q.** What about the “phosphorylated jun kinase (JNK)” value (HGT-1 cells [4]) of the same molecule?
**A.** had no effect

**Q.** What about the Bax protein (HGT-1 cells [4]; 48 h) of the same molecule?
**A.** remained unchanged

**Q.** What about the “Caspase-3 and PARP cleavage” value (HGT-1 cells [4]; 48 h) of the same molecule?
**A.** cleaved

**Q.** And the Mcl-1 protein (HGT-1 cells [4]; 48 h)?
**A.** suppressed

**Q.** And the “cyclin B1, D1, aurora kinase A, B and survivin protein levels” value (HGT-1 cells [4]; 48 h)?
**A.** decrease in these proteins

**Q.** And the survivin protein levels (HGT-1 cells [4]; 48 h)?
**A.** strongly induced

**Q.** What about the “cyclin B1 protein” value (HGT-1 cells [4]; docetaxel, 48 h) of the same molecule?
**A.** slightly increased

**Q.** And the “apoptosis compared with HGT-1 parental cells” value [7]?
**A.** higher level
